Experimental data published in patent US20240139220A1, “TREATMENT OF HPV INFECTION” (priority 2022, published 2024).

Assay: Ex vivo permeation and penetration across porcine vaginal tissue (Franz diffusion cells, IVPT)
Assay type: in vitro ADME
Conditions: 0.1% dose; porcine and human tissues (FIG. 116)
Excerpt: FIG. 116 is an in vitro tissue permeation test in vaginal tissue comparing Compound II to ABI-1968. […] Bars B and C show the tissue penetration of a 0.1% Compound II gel in […]. […] This may be a contributing factor to the performance of ABI-1968 in clinical studies. […] This is described in Example 41.
Freshly harvested porcine vaginal tissue was procured from local slaughterhouse in an ice box. The vaginal tissue was cut open to expose the mucosal surface and tissue was cleaned by gentle flow of PBS pH 7.4. The porcine vaginal tissue was cut into circular portions (approximately 2 cm^2) with help of a […] punch.
The circular portion of tissue was sandwiched between two chambers of a Franz diffusion cell with an active diffusion area of 1 cm^2, and the mucosal layer was exposed to the donor chambers. The resistance across porcine vaginal tissue was measured using a wave form generator to ensure the integrity of the tissue segment used for the permeation study. Porcine vaginal tissue with resistance of ≥3 KΩ.cm^2 was used for study. The receiver chamber was filled with 8 ml of 5% solutol PBS 7.4 pH, which was stirred at 600 rpm with a 3 mm magnetic stir bar and the temperature was maintained at 37° C. with a circulating water bath.
The ˜200 mg of gel was filled into tared 1 mL syringe and gel was dispensed to donor chamber. The gel was spread on to mucosal surface with pre weighed applicator. After loading and spreading of the gel onto surface of mucosal surface, the weight of 1 mL syringe and applicator was noted to determine the exact amount of gel loaded into donor chamber.
Time course (2 h, 4 h and 8 h) porcine vaginal permeation studies were performed. After loading gel, 500 μL samples were withdrawn from the receiver compartment at different time intervals and each time an equal volume of fresh receiver media was used to replace withdrawn samples. The sample withdrawn at each time interval were stored immediately in −20° C. until analysis. After 2, 4 and 8 h, the formulation was removed from the donor chamber with help of syringe and cleaned with cotton swab. The tissue was removed and washed gently with wash solution (50% methanol in water) 5 times and alternatively cleaning with cotton swab.
An 8 mm punch of active diffusion area of washed porcine vaginal tissue was removed, weighed and transferred into a tube. This tube was immediately placed into dry ice for ˜15 min. After specified time, tissue was removed and placed in precooled dish. The tissue was minced into smaller pieces on a dish with a precooled surgical blade. The minced tissue was transferred to sample tubes and dish was rinsed with 1 ml of 5% solutol in PBS 7.4 pH and transferred to same tissue sample tube. These tubes were stored in −70° C. until analysis.
The samples stored at −20° C. was removed and thawed at room temperature for 30 min. The drug from receptor fluid was centrifuged at 13000 rpm for 5 min and to 200 μL of supernatant equal volume of extraction solvent was added. These samples were centrifuged at 13000 rpm for 5 min and supernatant was transferred into vials for analysis.
The minced tissue samples stored at −70° C. were removed and thawed at room temperature for ˜90 min. The samples were kept for shaking at room temperature for 4 h in BioShaker. After 4 h, samples were centrifuged at 13000 rpm for 5 min. To 100 μL of supernatant, 400 μL of extraction solvent was added and vortexed for 2 min. […]

CCOC(=O)[C@H](C)NP(=O)(COCCn1cnc2c(OC)nc(N)nc21)OCc1ccccc1.O=C(O)/C=C/C(=O)O (mixture of isomers) [Compound I monofumarate, (±)-(2S)-ethyl-2-((((2-(2-amino-6-methoxy-9H-purin-9-yl)-ethoxy)-methyl)-(benzyloxy)-phosphoryl)-amino)-propionate monofumarate]
Concentration in vaginal tissue: 40 to 85 ng/mL
